Test results taken from patent publication US7482008B1, “Human T cell reactive feline protein (TRFP) isolated from house dust and uses therefor” (Merck Patent GmbH, priority 1989, dated 2009).

Columns and labels:
[1] = tested on: human IgE (cat allergic patient plasma); test: Dot blot assay of human IgE binding; settings: percent of cat allergic patients with positive IgE binding
Procedure: TRFP was coated at 2, 0.2 and 0.02 μg/dot and the peptides at 10, 1 and 0.1 μg/dot. Wells were then washed with 200 μl PBS. After equilibration of blots with Tween solution, (Tris-HCL; pH 7.5 0.025M NaCl 0.17 m Tween-20 0.5%) all sections were blocked with 1% nonfat dry milk, 1% fetal calf serun/Tween solution for 1-1.5 hour. Patient plasma was used at 10% (v/v) in 1% milt/Tween solution and preabsorbed on blank strips of nitrocellulose for 1 hour. After preabsorption, the diluted patient plasma sample was incubated with the antigen bearing dot blot overnight at room temperature (RT). Nitrocellulose dot blot was incubated in biotinylated goat anti-human IgE (1:2500) in Tween solution for 2 hours RT. After washing, the sections were incubated in 1 μCi ^125I-Streptavidin, 1 hour. Following removal of unbound label by extensive washing, the blots were exposed to film for 16 hours.

[2] = tested on: BDF1 mice preimmunized with TRFP; test: Peptide Y tolerization of mice preimmunized with TRFP, IL-2 (CTLL-2) and IL-4 (CT4S) production; type: in vivo, mouse
Procedure: BDF1 mice were each immunized with 100 μg TRFP in 200 μl IFA (Incomplete Freund's Adjuvant) in a single site intraperitoneally. After four months, the mice were bled and grouped according to their anti-TRFP IgG antibody levels as follows. The mice were warmed with an infra-red lamp and bled through one of the tail veins by nicking the vein with a razor blade (Gilette Platinum Plus). The blood was allowed to drip into a serum separating tube (Microtainer, Becton-Dickenson) and allowed to clot. The sera was then separated from the clot by centrifugation at 13,000 rpm. The sera was stored at −20° C. until use. The sera was assayed for TRFP-specific IgG by ELISA. […] After rinsing, the bound mouse antibody was detected by incubation with biotinylated goat anti-mouse IgG (Southern Biotechnology Associates) diluted 1/10000 in PBS. […] The resulting O.D. values were read by an ELISA reader (Bio-Tek modal #310) at 450 nm to quantitate the complexes bound to TRFP protein on the plates. […]
There are several phenotypic classes of T helper cells which can be differentiated by their production of lymphokines. […] IL-2 production is easily measured from primary in vitro lymph node cultures through the IL-2 dependent CTLL-2 cell line. Similarly, IL-4 can be measured with cultures of the IL-4 dependent CT4S cells (provided by W. Paul). […] The plates were harvested and counted identically to the IL-2 assays detailed above. […]

CD4+ T cells = test: Cytokine production of purified CD4+ T cells from peptide Y pre-injected mice; type: in vivo, mouse; settings: CD4+ T cells from pre-injected mice compared to control CD4+ cells
mice primed to rch1 = test: Duration of peptide inhibitory effects on T cell function in rCh1 primed mice; type: in vivo, mouse; settings: FIG. 25
Procedure: Mice were injected with recombinant TRFP Chain 1 (rCh1) in Incomplete Freund's Adjuvant. Three months later all the mice were primed to rch1 as judged by their development of significant titers of anti-rch1 antibody.

Balb/c mice = test: Oral rChain 1, antibody response ELISA, protocol 2; type: in vivo, mouse
Procedure: Four groups of five age-matched Balb/c 6- to 10-week-old female mice (The Jackson Laboratory, Bar Harbor, Me.) were fed on days −7, −5 and −2 with 250 μg cleaved, purified, recombinant TRFP Chain 1 (rChain) (Groups 1 and 3) or with PBS (Groups 2 and 4). On day 0, the mice in Groups 1 and 2 were challenged with an intraperitoneal (i.p.) injection of 10 μg rChain 1 in alum, while the mice in Groups 3 and 4 were challenged on day 0 with an i.p. injection of 100 μg rChain 1 in CFA. […]
Subsequent incubations were for 1 hour at 37° C. The wells were washed with PBS containing 0.05% Tween 20 and blocked with 0.5% gelatin in PBS. Sera were diluted in PBS as noted in the individual assay and were incubated in triplicate on the washed plates. After incubation and washing, the bound mouse antibody was detected by incubation with biotinylated goat anti-mouse IgG (Southern Biotechnology Ass.). […] 3,3′,5,5′-Tetramethylbenzidine peroxidase substrate (Kirkegaard & Perry Labs) was used according to directions supplied, and resulting OD (450 nm) values were determined using an ELISA reader (Bio-Tek model 310, Winooski, Vt.). […]
Antigen-bound IgE was detected similarly except using a biotinylated rat monoclonal antibody specific for mouse IgE (Baniyash et al. (1984) Eur. J. Immunol. 14:799-807). […]

## TRFP: human T cell reactive feline protein affinity purified from house dust; two covalently linked chains
[1]
  Positive Binding: 100%

## peptide Y: amino acid residues 29-55 from chain 1 of TRFP (SEQ. ID. NO: 18) (KALPVVLENARILKNCVDAKMTEEDKE)
[2]; 300 μg s.c. days 0 and 5, animals preimmunized with TRFP
  tolerization of peptide Y specific T cells (IL-2): can be tolerized
[2]; pooled lymph node cells, stimulation index
  peptide specific production of both IL-2 and IL-4 in secondary in vitro cultures: decreased
CD4+ T cells
  reduction in the production of the cytokines (IL-2, IL-3 and IL-4): greater than 75%
Mice primed to rch1
  duration of inhibitory effects of subcutaneous peptide injection on T cell function: up to 56 days

## recombinant chain 1: recombinant TRFP chain 1 expressed in E. coli
Balb/c mice; 92 days after challenge, compared to PBS
  IgE binding to rChain 1: less IgE binding to rChain 1
Balb/c mice; oral administration, up to 100 days after treatment
  IgG response to rChain 1: depressed level of IgG response
